pIC50: −log10 of the molar value. Where two headings read alike, the source gives them in different places.
Columns and labels:
Factor XIa = Factor XIa (Homo sapiens (Human), UniProt P03951); assay: Factor XIa inhibition assay (FLINT) utilizing a fluorophore-quencher pair peptide substrate; assay type: biochemical; settings: 30 min preincubation, read-out: FXIa Kin Inh IC50; for pIC50: kinetic reads over 30 min
Method in brief: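 FXIa ([…]) preincubated 30 min with compound (11-point 3-fold dilution, top 100 nM, 2% DMSO), then 15 μM quenched FXI Arg146-based peptide added; Tris pH 7.5, CaCl2, BSA, CHAPS. Fluorescence 485/520 nm read kinetically every 5 min over 30 min at RT; IC50 by 4-parameter fit.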

human plasma kallikrein = human plasma kallikrein (Homo sapiens (Human), UniProt P03952); assay: Kallikrein inhibition assay (FLINT) utilizing a quenched AMC peptide substrate; assay type: biochemical; settings: 30 min preincubation, read-out: Kallikrein Kin Inh IC50; for pIC50: kinetic reads over 30 min, Z-Gly-Pro-Arg-AMC substrate 50 μM
Method in brief: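 Fluorogenic Z-Gly-Pro-Arg-AMC cleavage (50 μM substrate, 2 nM kallikrein, Tris pH 7.5, CaCl2, BSA, CHAPS, 2% DMSO) read kinetically at 340/440 nm for 30 min after 30-min compound pre-incubation. Compounds in 11-point 3-fold series from 1 μM; percent inhibition fitted to four-parameter equation for IC50.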

[1] = 5Fam-KLTRAETV-K5Tamra substrate 15 μM
[2] = 5Fam-[…]-K5Tamra substrate 15 μM

Sequence of Factor XIa (P03951 388-625): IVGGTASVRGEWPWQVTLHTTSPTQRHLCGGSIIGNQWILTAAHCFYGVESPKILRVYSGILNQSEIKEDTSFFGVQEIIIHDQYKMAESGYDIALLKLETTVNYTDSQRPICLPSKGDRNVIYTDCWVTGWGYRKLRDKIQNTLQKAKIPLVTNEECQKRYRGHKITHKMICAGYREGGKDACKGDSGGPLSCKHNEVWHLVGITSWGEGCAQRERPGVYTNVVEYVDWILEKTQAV
Sequence of Factor XIa (P03951 19-387 partner): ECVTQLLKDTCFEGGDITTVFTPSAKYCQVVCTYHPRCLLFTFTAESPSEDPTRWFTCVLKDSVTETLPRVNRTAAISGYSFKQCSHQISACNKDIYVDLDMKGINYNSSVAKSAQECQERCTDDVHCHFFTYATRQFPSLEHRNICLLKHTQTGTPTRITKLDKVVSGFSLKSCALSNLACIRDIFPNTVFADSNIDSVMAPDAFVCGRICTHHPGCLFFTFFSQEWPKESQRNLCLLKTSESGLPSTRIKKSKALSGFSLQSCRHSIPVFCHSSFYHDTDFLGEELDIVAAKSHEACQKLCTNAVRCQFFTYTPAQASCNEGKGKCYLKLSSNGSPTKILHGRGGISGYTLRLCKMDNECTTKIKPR
Sequence of human plasma kallikrein (P03952 391-638): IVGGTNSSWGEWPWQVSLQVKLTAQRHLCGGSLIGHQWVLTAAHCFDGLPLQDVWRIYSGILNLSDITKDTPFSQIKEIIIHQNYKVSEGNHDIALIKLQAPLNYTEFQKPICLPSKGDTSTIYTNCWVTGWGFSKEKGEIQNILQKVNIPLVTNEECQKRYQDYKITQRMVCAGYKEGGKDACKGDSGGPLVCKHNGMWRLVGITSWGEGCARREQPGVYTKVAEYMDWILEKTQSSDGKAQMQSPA
Sequence of human plasma kallikrein (P03952 20-390 partner): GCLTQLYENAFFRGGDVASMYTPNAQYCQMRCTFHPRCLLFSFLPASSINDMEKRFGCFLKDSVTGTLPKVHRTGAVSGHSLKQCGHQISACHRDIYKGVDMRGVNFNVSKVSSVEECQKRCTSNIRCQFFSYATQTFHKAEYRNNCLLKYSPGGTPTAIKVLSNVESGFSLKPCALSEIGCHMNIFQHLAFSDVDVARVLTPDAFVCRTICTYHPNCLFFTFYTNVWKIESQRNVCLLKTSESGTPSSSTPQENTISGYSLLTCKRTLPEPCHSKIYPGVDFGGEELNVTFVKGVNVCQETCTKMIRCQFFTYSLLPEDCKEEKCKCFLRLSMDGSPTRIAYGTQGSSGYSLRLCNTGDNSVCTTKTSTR

| SMILES | pIC50 (Factor XIa; [1]) | pIC50 (human plasma kallikrein) | pIC50 (Factor XIa; [2]) | IC50 (Factor XIa; μM, kinetic reads) [µM] | IC50 (human plasma kallikrein; μM, kinetic reads) [µM] |
| --- | --- | --- | --- | --- | --- |
| O=C1C=C(c2c(-n3cc(Cl)nn3)ccc(Cl)c2F)C[C@H]2CC[C@@H](c3nc(-c4cc[nH]c(=O)c4F)c[nH]3)N12 [Example 200, (3S,8aR)-7-(3-chloro-6-(4-chloro-1H-1,2,3-triazol-1-yl)-2-fluorophenyl)-3-(4-(3-fluoro-2-oxo-1,2-dihydropyridin-4-yl)-1H-imidazol-2-yl)-2,3,8,8a-tetrahydroindolizin-5(1H)-one] | 8.36 | 7.61 | – | – | – |
| CC(C)[C@H](N)C(=O)OCc1nccc(-c2cnc([C@@H]3CC[C@@H]4CC(c5c(-n6cnnn6)ccc(Cl)c5F)=CC(=O)N43)[nH]2)c1F [Example 75, [4-[2-[(3S,8aR)-7-[3-chloro-2-fluoro-6-(tetrazol-1-yl)phenyl]-5-oxo-2,3,8,8a-tetrahydro-1H-indolizin-3-yl]-1H-imidazol-5-yl]-3-fluoro-2-pyridyl]methyl (2S)-2-amino-3-methyl-butanoate] | 8.37 | 7.42 | – | – | – |
| O=C1C=C(c2c(OC(F)F)ccc(Cl)c2F)C[C@H]2CC[C@@H](c3nc(F)c(-c4ccnc(CO)c4F)[nH]3)N12 [Example 23, (3S,8aR)-7-(3-Chloro-6-(difluoromethoxy)-2-fluorophenyl)-3-(4-fluoro-5-(3-fluoro-2-(hydroxymethyl)pyridin-4yl)-1H-imidazol-2-yl)-2,3,8,8a-tetrahydroindolizin-5(1H)-one] | 7.30 | 6.58 | – | – | – |
| O=C1C=C(c2c(-n3cnnn3)ccc(Cl)c2F)C[C@H]2CC[C@H](c3nc(F)c(-c4ccnc(C5(O)CC5)c4F)[nH]3)N12 (single isomer, unassigned) [Example 109] | 8.32 | 7.45 | – | – | – |
| C[C@@H]1C[C@@H](c2ncc(-c3ccc(N)nc3F)[nH]2)N2C(=O)C=C(c3c(-n4cnnn4)ccc(Cl)c3F)C[C@H]12 (single isomer, unassigned) [Example 345, (1*R,3S,8a*R)-3-(5-(6-Amino-2-fluoropyridin-3-yl)-1H-imidazol-2-yl)-7-(3-chloro-2-fluoro-6-(1H-tetrazol-1-yl)phenyl)-1-methyl-2,3,8,8a-tetrahydroindolizin-5(1H)-one] | 8.59 | 7.84 | – | – | – |
| O=C1C=C(c2cc(Cl)ccc2-n2cnnn2)C[C@H]2CC[C@@H](c3ncc(-c4ccc(NC56CC(C5)C6)nc4F)[nH]3)N12 [Example 83] | 7.76 | 7.24 | – | – | – |
| CNc1ncccc1-c1cnc([C@@H]2CC[C@H]3CC(c4c(-n5cnnn5)ccc(Cl)c4F)=CC(=O)N32)[nH]1 [Example 269, (3S,8aS)-7-[3-Chloro-2-fluoro-6-(tetrazol-1-yl)phenyl]-3-[5-[2-(methylamino)-3-pyridyl]-1H-imidazol-2-yl]-2,3,8,8a-tetrahydro-1H-indolizin-5-one] | < 7.00 | 6.10 | – | – | – |
| Nc1ccc(-c2cnc([C@H]3CC[C@@H]4CC(c5c(-n6cnnn6)ccc(Cl)c5F)=CC(=O)N43)[nH]2)c(F)n1 [Example 356, (3R,8aR)-3-(5-(6-Amino-2-fluoropyridin-3-yl)-1H-imidazol-2-yl)-7-(3-chloro-2-fluoro-6-(1H-tetrazol-1-yl)phenyl)-2,3,8,8a-tetrahydroindolizin-5(1H)-one] | – | – | – | 7.4 | > 10 |
| [2H]C([2H])(O)c1nccc(-c2nc([C@@H]3CC[C@@H]4CC(c5c(-n6cnnn6)ccc(Cl)c5F)=CC(=O)N43)[nH]c2Br)c1F [Example 184, (3S,8aR)-3-(5-bromo-4-(3-fluoro-2-(hydroxymethyl-d2)pyridin-4-yl)-1H-imidazol-2-yl)-7-(3-choro-2-fluoro-6-(1H-tetrazol-1-yl)phenyl)-2,3,8,8a-tetrahydroindolizin-5(1H)-one] | – | 6.68 | 8.14 | – | – |

Continued by rising pIC50 (human plasma kallikrein), values first:

| pIC50 (Factor XIa; [1]) | pIC50 (human plasma kallikrein) | pIC50 (Factor XIa; [2]) | IC50 (Factor XIa; μM, kinetic reads) [µM] | IC50 (human plasma kallikrein; μM, kinetic reads) [µM] | SMILES |
| --- | --- | --- | --- | --- | --- |
| 8.46 | 7.90 | – | – | – | O=C1C=C(c2c(-n3cnnn3)ccc(Cl)c2F)C[C@H]2CC[C@@H](c3ncc(-c4ccnc(C5COC5)c4F)[nH]3)N12 [Example 130, (3S,8aR)-7-(3-chloro-2-fluoro-6-(1H-tetrazol-1-yl)phenyl)-3-(5-(3-fluoro-2-(oxetan-3-yl)pyridin-4-yl)-1H-imidazol-2-yl)-2,3,8,8a-tetrahydroindolizin-5(1H)-one] |
| – | 7.99 | 9.10 | – | – | COC(=O)Nc1ccc(-c2cnc([C@@H]3CC[C@H]4CC(c5c(-n6cnnn6)ccc(Cl)c5F)=CC(=O)N43)[nH]2)nc1 (relative stereo) [Example 322, Methyl (6-(2-((3S,8aS)-7-(3-Chloro-2-fluoro-6-(1H-tetrazol-1-yl)phenyl)-5-oxo-1,2,3,5,8,8a-hexahydroindolizin-3-yl)-1H-imidazol-5-yl)pyridin-3-yl)carbamate] |
| 7.76 | 8.11 | – | – | – | O=C1C=C(c2c(-n3cnnn3)ccc(Cl)c2F)C[C@H]2CC[C@H](c3ncc(-c4ccnc(N5CCC[C@H](O)C5)c4F)[nH]3)N12 [Example 188, (3R,8aR)-7-(3-chloro-2-fluoro-6-(1H-tetrazol-1-yl)phenyl)-3-(5-(3-fluoro-2-((S)-3-hydroxypiperidin-1-yl)pyridin-4-yl)-1H-imidazol-2-yl)-2,3,8,8a-tetrahydroindolizin-5(1H)-one] |
| 8.24 | 8.13 | – | – | – | CC(C)(CO)Nc1nccc(-c2cnc([C@@H]3CC[C@@H]4CC(c5c(-n6cnnn6)ccc(Cl)c5F)=CC(=O)N43)[nH]2)c1F [Example 89, (3S,8aR)-7-[3-chloro-2-fluoro-6-(tetrazol-1-yl)phenyl]-3-[5-[3-fluoro-2-[(2-hydroxy-1,1-dimethyl-ethyl)amino]-4-pyridyl]-1H-imidazol-2-yl]-2,3,8,8a-tetrahydro-1H-indolizin-5-one] |
| 9.30 | 8.19 | – | – | – | CC1C[C@@H](c2ncc(-c3ccc(N)nc3F)[nH]2)N2C(=O)C=C(c3c(-n4cnnn4)ccc(Cl)c3F)CC12 (stereo partly drawn) [Example 348, (3S)-3-(5-(6-Amino-2-fluoropyridin-3-yl)-1H-imidazol-2-yl)-7-(3-chloro-2-fluoro-6-(1H-tetrazol-1-yl)phenyl)-1-methyl-2,3,8,8a-tetrahydroindolizin-5(1H)-one] |
| 9.22 | 8.26 | – | – | – | CC1C[C@@H](c2ncc(-c3ccc(N)nc3Cl)[nH]2)N2C(=O)C=C(c3c(-n4cnnn4)ccc(Cl)c3F)CC12 (stereo partly drawn) [Example 347, (3S)-3-(5-(6-Amino-2-chloropyridin-3-yl)-1H-imidazol-2-yl)-7-(3-chloro-2-fluoro-6-(1H-tetrazol-1-yl)phenyl)-1-methyl-2,3,8,8a-tetrahydroindolizin-5(1H)-one] |
| – | 8.31 | 8.59 | – | – | O=C1C=C(c2c(-n3cnnn3)ccc(Cl)c2F)C[C@@H]2CC[C@@H](c3ncc(-c4ccnc(N[C@H]5CCOC5)c4F)[nH]3)N12 (single isomer, unassigned) [Example 74, (3S,8aS*)-7-(3-chloro-2-fluoro-6-(1H-tetrazol-1-yl)phenyl)-3-(5-(3-fluoro-2-(((S)-tetrahydrofuran-3-yl)amino)pyridin-4-yl)-1H-imidazol-2-yl)-2,3,8,8a-tetrahydroindolizin-5(1H)-one] |
| 8.68 | 8.40 | – | – | – | O=C1C=C(c2c(-n3cnnn3)ccc(Cl)c2F)C[C@H]2CC[C@@H](c3nc(-c4ccc5[nH]ncc5c4)c[nH]3)N12 [Example 43, (3S,8aR)-3-(4-(1H-indazol-5-yl)-1H-imidazol-2-yl)-7-(3-chloro-2-fluoro-6-(1H-tetrazol-1-yl)phenyl)-2,3,8,8a-tetrahydroindolizin-5(1H)-one] |
| – | 8.57 | 9.22 | – | – | O=C1C=C(c2c(-n3cnnn3)ccc(Cl)c2F)C[C@H]2CC[C@@H](c3ncc(-c4ccnc(N[C@H]5CCOC5)c4F)[nH]3)N12 (single isomer, unassigned) [Example 73, (3S,8aR*)-7-(3-chloro-2-fluoro-6-(1H-tetrazol-1-yl)phenyl)-3-(5-(3-fluoro-2-(((S)-tetrahydrofuran-3-yl)amino)pyridin-4-yl)-1H-imidazol-2-yl)-2,3,8,8a-tetrahydroindolizin-5(1H)-one] |
| 8.96 | 8.68 | – | – | – | COc1ccc(-c2c[nH]c([C@@H]3CC[C@H]4CC(c5c(-n6cnnn6)ccc(Cl)c5F)=CC(=O)N43)n2)c(NC(=O)C2CC2)c1 [Example 264, N-[2-[2-[(3S,8aS)-7-[3-Chloro-2-fluoro-6-(tetrazol-1-yl)phenyl]-5-oxo-2,3,8,8a-tetrahydro-1H-indolizin-3-yl]-1H-imidazol-4-yl]-5-methoxy-phenyl]cyclopropanecarboxamide] |
| – | 8.70 | 8.85 | – | – | Cn1c(=O)[nH]c2ccc(-c3cnc([C@@H]4CC[C@@H]5CC(c6c(-n7cnnn7)ccc(Cl)c6F)=CC(=O)N54)[nH]3)cc21 (relative stereo) [Example 300, 6-(2-((3S,8aR*)-7-(3-Chloro-2-fluoro-6-(1H-tetrazol-1-yl)phenyl)-5-oxo-1,2,3,5,8,8a-hexahydroindolizin-3-yl)-1H-imidazol-5-yl)-1-methyl-1H-benzo[d]imidazol-2(3H)-one] |
| 9.52 | 9.15 | – | – | – | O=C(Nc1ccccc1-c1cnc([C@@H]2CC[C@@H]3CC(c4c(-n5cnnn5)ccc(Cl)c4F)=CC(=O)N32)[nH]1)C1CC1 [Example 307, N-(2-(2-((3S,8aR)-7-(3-Chloro-2-fluoro-6-(1H-tetrazol-1-yl)phenyl)-5-oxo-1,2,3,5,8,8a-hexahydroindolizin-3-yl)-1H-imidazol-4-yl)phenyl)cyclopropanecarboxamide] |
